Experimental findings from patent US20060079696A1, “Substituted compounds derived from N-(benzyl)phenylacetamide, preparation and uses” (GENFIT, priority 2004, published 2006) are described below.

For test [1], the target named is T1, hPPARα (Homo sapiens, UniProt Q07869).
T1 construct: fragments of DNA amplified by PCR corresponding to the DEF domains of the human PPARα, PPARγ PPARδ nuclear receptors; expressed in transfected cells; host or cells: COS-7 (monkey kidney fibroblast line)
T1 sequence (Q07869 239-466 limits assumed): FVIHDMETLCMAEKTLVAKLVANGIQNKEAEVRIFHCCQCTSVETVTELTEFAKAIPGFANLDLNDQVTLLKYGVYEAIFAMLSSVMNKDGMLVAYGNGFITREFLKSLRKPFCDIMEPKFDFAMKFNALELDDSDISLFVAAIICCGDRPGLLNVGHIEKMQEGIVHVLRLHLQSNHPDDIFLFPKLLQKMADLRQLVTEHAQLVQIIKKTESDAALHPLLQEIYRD
Briefly: Gal4-hPPARα chimera transactivation in COS-7 cells (luciferase). The format is cell-based. Particulars: induction factor standardised to an internal reference, read-out: % hGal4-PPAR transactivation (10 μM) alpha. As for the experimental part:
(§1) The PPAR activation was evaluated in vitro on a monkey kidney fibroblast line (COS-7) by measuring the transcriptional activity of chimeras constituted of the DNA binding domain of the Gal4 transcription factor of yeast and of the binding domain to the ligand of the different PPARs. The compounds were tested at doses between 0.01 and 100 μM on Gal4-PPARα, γ, δ chimeras. The induction factor (ratio between the luminescence induced by the compound and the luminescence induced by the control) was measured for each condition: the higher this factor, the more the compound has PPAR-activating properties.
(§2) The COS-7 cells from ATCC were cultivated in a DMEM medium supplemented with 10% (vol/vol) of foetal calf serum, 100 U/ml penicillin (Gibco, Paisley, UK) and 2 mM L-Glutamine (Gibco, Paisley, UK). The cells were incubated at 37° C. in a humid atmosphere containing 5% CO2.
(§3) The Gal4(RE)_TkpGL3, pGal4-hPPARα, pGal4-hPPARγ, pGal4-hPPARδ and pGal4-φ plasmids have been described in the literature (Raspe, Madsen et al. 1999). The pGal4-hPPARα, pGal4-hPPARγ and pGal4-hPPARδ constructs were obtained by cloning in the pGal4-φ vector of fragments of DNA amplified by PCR corresponding to the DEF domains of the human PPARα, PPARγ PPARδ nuclear receptors.
(§4) COS-7 cells were plated in 96 wells plates (5×10^4 cells/well) and transfected, in the presence of 10% foetal calf serum and 150 ng DNA per well, with a pGal4-PPAR/Gal4(RE)_TkpGL3 ratio of 1/10. The cells were then incubated for 24 hours with the compounds to be tested, without serum. At the end of the experiment, the cells were lysed and the luciferase activities were determined by means of Steady Glow Luciferase (Promega) according to the supplier's recommendations.
(§5) The inventive compounds were tested at 10 μM on the 3 PPAR isoforms. The results obtained are detailed in table (1). The transactivation measured is expressed as a response ratio versus an internal reference for each of the isoforms.
(§6) The compounds were tested at 10 μM on the Gal4-PPARα, γ, δ chimeras. The induction factor, i.e. the ratio between the luminescence induced by the compound and the luminescence induced by the control, was measured for each condition. It was then standardised in comparison to an internal reference and the results were then expressed in percentages : the higher the activation percentage, the more the compound has PPAR-activating properties.

Test [2] has as its target T2, hPPARδ (Homo sapiens, UniProt Q03181).
T2 construct: fragments of DNA amplified by PCR corresponding to the DEF domains of the human PPARα, PPARγ PPARδ nuclear receptors; expressed in transfected cells; host or cells: COS-7 (monkey kidney fibroblast line)
T2 sequence (Q03181 211-439 limits assumed): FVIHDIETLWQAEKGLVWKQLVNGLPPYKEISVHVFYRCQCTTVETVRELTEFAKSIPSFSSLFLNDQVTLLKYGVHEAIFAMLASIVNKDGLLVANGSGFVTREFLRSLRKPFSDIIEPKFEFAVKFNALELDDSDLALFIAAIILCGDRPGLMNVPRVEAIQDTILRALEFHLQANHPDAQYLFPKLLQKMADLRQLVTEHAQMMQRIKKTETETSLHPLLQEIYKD
As to the kind of experiment: Gal4-hPPARδ chimera transactivation in COS-7 cells (luciferase). The format is cell-based. The following applies: induction factor standardised to an internal reference, read-out: % hGal4-PPAR transactivation (10 μM) delta. As for the experimental part:
as §1, §2, §3, §4, §5, §6

Test [3] has as its target T3, hPPARγ (Homo sapiens, UniProt P37231).
T3 construct: fragments of DNA amplified by PCR corresponding to the DEF domains of the human PPARα, PPARγ PPARδ nuclear receptors; expressed in transfected cells; host or cells: COS-7 (monkey kidney fibroblast line)
T3 sequence (P37231 238-503 limits assumed): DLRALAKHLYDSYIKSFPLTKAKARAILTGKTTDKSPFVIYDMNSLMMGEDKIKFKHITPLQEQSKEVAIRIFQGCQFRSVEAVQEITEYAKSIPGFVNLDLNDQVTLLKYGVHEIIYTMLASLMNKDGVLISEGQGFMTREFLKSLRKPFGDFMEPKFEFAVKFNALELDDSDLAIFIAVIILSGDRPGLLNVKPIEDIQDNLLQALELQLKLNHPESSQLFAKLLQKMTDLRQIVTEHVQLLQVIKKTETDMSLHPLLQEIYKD
As to the kind of experiment: Gal4-hPPARγ chimera transactivation in COS-7 cells (luciferase). Format: cell-based. Particulars: induction factor standardised to an internal reference, read-out: % hGal4-PPAR transactivation (10 μM) gamma. The protocol: as §1, §2, §3, §4, §5, §6

In test [4] the target is T4, ATP-dependent potassium channels (K+ATP) (Rattus norvegicus, UniProt Q09429).
T4 construct: the potassium channels derive from a rat's cerebral cortex; tissue CEREP; host or cells: rat cerebral cortex
As to the kind of experiment: [3H]glibenclamide binding to ATP-dependent potassium channels of rat cerebral cortex. The following applies: for inhibition at 0.3 µM: 1 h, 300 nM, specific displacement of [3H]glibenclamide 0.1 nM, read-out: KATP binding (300 nM). As for the experimental part:
The results shown reflect the specific affinity of the inventive compounds on the ATP-dependent (K^+ATP) potassium channels. The specific binding measured corresponds to the difference between the total binding and the non-specific binding determined in the presence of an excess of non-marked reference ligand (glibenclamide 1 μM). The inventive compounds were tested at doses between 3 and 300 nM: the higher the percentage measured, the stronger the affinity of the compound for the ATP-dependent potassium channels.
The binding test was carried out at CEREP (Celle L'Evescault, France (86)) according to a protocol inspired by Angel et al. (Angel and Bidet 1991): the potassium channels derive from a rat's cerebral cortex and the reference compound is [^3H]glibenclamide at 0.1 nM. The protocol consists of incubation at 22° C. for one hour.
A general note: In a radioligand displacement assay an active substance lowers the binding of a labelled ligand.

T4 sequence (Q09429 whole entry): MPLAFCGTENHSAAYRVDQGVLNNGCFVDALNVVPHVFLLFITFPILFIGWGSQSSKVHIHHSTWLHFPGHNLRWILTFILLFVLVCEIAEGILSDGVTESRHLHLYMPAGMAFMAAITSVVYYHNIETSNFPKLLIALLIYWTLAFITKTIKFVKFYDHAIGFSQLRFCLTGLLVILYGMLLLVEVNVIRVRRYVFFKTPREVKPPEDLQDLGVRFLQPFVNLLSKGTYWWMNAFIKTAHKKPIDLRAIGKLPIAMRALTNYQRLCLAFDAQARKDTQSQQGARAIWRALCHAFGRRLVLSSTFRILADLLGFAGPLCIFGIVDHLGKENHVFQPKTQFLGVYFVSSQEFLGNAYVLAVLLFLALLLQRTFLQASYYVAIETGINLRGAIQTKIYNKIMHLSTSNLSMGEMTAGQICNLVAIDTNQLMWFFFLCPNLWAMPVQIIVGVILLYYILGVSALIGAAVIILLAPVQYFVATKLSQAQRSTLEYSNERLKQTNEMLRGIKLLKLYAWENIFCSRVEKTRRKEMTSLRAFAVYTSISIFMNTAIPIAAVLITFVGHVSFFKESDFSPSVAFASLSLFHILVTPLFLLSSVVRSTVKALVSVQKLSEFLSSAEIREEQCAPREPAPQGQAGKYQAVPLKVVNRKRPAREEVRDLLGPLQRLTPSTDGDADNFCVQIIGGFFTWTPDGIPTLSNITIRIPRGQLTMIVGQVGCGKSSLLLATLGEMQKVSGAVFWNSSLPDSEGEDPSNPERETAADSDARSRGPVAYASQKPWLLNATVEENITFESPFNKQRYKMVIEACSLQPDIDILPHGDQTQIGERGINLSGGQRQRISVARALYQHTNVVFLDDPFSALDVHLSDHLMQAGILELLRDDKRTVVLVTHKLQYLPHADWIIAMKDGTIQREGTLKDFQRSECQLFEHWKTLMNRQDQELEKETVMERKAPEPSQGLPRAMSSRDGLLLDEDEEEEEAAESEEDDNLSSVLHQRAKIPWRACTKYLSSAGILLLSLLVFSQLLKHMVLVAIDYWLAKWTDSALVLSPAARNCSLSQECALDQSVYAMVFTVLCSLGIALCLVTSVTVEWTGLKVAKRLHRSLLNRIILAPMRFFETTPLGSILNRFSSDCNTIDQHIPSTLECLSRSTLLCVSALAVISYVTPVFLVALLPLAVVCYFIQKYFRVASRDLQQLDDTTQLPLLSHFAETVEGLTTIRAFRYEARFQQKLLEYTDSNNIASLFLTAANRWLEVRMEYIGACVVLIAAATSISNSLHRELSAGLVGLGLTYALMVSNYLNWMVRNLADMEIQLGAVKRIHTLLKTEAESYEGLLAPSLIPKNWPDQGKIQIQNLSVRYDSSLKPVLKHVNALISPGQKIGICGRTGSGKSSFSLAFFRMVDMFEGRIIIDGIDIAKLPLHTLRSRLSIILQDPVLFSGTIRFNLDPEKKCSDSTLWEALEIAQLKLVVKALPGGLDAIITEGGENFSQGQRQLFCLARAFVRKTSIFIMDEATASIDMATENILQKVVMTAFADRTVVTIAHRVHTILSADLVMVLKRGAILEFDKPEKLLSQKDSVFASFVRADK
T4 sequence (P70673 whole entry partner): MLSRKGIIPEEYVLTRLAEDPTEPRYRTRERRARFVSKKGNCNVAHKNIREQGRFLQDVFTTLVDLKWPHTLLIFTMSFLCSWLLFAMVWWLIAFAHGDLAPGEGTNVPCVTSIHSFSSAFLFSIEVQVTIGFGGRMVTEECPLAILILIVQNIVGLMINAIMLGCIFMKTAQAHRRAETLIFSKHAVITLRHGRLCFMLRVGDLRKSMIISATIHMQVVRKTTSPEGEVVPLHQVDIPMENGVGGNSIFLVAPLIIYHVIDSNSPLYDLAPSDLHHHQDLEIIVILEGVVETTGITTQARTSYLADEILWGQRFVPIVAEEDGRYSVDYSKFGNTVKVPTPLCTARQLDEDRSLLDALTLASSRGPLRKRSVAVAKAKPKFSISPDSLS

In the case of `CC(C)(Oc1ccc(CC(=O)NC(Cc2ccccc2)c2ccccc2N2CCCCC2)cc1)C(=O)O` (stereo not shown) [Compound 7, 2-[4-[1-(2-phenyl-1-(2-(1-piperidinyl)phenyl)ethyl)aminocarbonylmethyl]phenoxy]-2-methylpropanoic acid], the activation at 10 µM was 40% in test [1], less than 10% in test [2] and 34% in test [3]. For the same compound, the inhibition at 0.3 µM in test [4] was found to be 71%.
The IC50 is the concentration that gives 50% inhibition. `CCCCC(NC(=O)Cc1ccc(OC(C)(C)C(=O)O)cc1)c1ccccc1N1CCCCC1` (stereo not shown) [Compound 10, 2-[4-[1-(1-(2-(1-piperidinyl)phenyl)pentyl)aminocarbonylmethyl]phenoxy]-2-methylpropanoic acid]: the activation at 10 µM in test [1] was 11%; in test [2] it was less than 10%; in test [3] it was 49%. The compound further showed an IC50 in test [4] (FIG. 2) of 63 nM.
Consider `CC(C)CC(NC(=O)Cc1ccc(OC(C)(C)C(=O)O)cc1)c1ccc(C(F)(F)F)cc1N1CCCCC1` (stereo not shown) [Compound 21, 2-[4-[1-(3-methyl-1-(2-(1-piperidinyl)-4-(trifluoromethyl)phenyl)butyl)aminocarbonylmethyl]phenoxy]-2-methylpropanoic acid], for which the activation at 10 µM in test [1] was less than 10%; in test [2], 24%; in test [3], 25%. Also, the inhibition at 0.3 µM in test [4] worked out at 68%.
On the same counts, the results for `CC(C)CC(NC(=O)Cc1ccc(OCCCC(C)(C)C(=O)O)cc1)c1ccccc1N1CCCCC1` (stereo not shown) [Compound 28, 5-[4-[1-(3-methyl-1-(2-(1-piperidinyl)phenyl)butyl)aminocarbonylmethyl]phenoxy]-2,2-dimethylpentanoic acid] are 35%, less than 10%, 17% and 30%.
Consider `CC(C)CC(C(=O)NCc1ccc(OC(C)(C)C(=O)O)cc1)c1ccccc1N1CCCCC1` (stereo not shown) [Compound 32, 2-[4-[1-(3-methyl-1-(2-(1-piperidinyl)phenyl)butyl)carbonylaminomethyl]phenoxy]-2-methylpropanoic acid], for which the activation at 10 µM was less than 10% in test [1], less than 10% in test [2] and 25% in test [3]. The inhibition at 0.3 µM in test [4] was 93%.
Consider `CCCCC(NC(=O)Cc1ccc(OC(C)(C)C(=O)O)cc1)c1ccc(Br)cc1N1CCCCC1` (stereo not shown) [Compound 33, 2-[4-[1-(1-(2-(1-piperidinyl)-4-(bromo)phenyl)pentyl)aminocarbonylmethyl]phenoxy]-2-methylpropanoic acid], for which the activation at 10 µM was less than 10% in test [1], 23% in test [2] and 42% in test [3]. In addition, in test [4], the inhibition at 0.3 µM was 51%.
On the same counts, the results for `CC(C)CC(NC(=O)C(C)c1ccc(OC(C)(C)C(=O)O)cc1)c1ccccc1N1CCCCC1` (stereo not shown) [Compound 34, 2-[4-[1-methyl-1-[1-(3-methyl-1-(2-(1-piperidinyl)phenyl)butyl)aminocarbonyl]methyl]phenoxy]-2-methylpropanoic acid] are less than 10%, less than 10%, 30% and 81%.
On the same counts, the results for `CCCCC(NC(=O)Cc1ccc(OC(C)(C)C(=O)O)cc1)c1cccc(F)c1N1CCCCC1` (stereo not shown) [Compound 45, 2-[4-[1-(1-(3-fluoro-2-(1-piperidinyl)phenyl)pentyl)aminocarbonylmethyl]phenoxy]-2-methylpropanoic acid] are 31%, less than 10%, 62% and 66%.
On the same counts, the results for `CCCCC(NC(=O)Cc1ccccc1OCCCC(C)(C)C(=O)O)c1ccccc1N1CCCCC1` (stereo not shown) [Compound 53, 5-[2-[1-(1-(2-(1-piperidinyl)phenyl)pentyl)aminocarbonylmethyl]phenoxy]-2,2-dimethylpentanoic acid] are less than 10%, less than 10%, 40% and 25%.
In the case of `CCCCC(NC(=O)Cc1ccc(OC(C)(C)C(=O)O)cc1)c1ccccc1OC` (stereo not shown) [Compound 54, 2-[4-[1-(1-(2-(methoxy)phenyl)pentyl)aminocarbonylmethyl]phenoxy]-2-methylpropanoic acid], the activation at 10 µM was less than 10% in test [1], less than 10% in test [2] and 30% in test [3]. Further, the inhibition at 0.3 µM in test [4] amounted to 79%.
In the case of `Cc1cccc(CC(NC(=O)Cc2ccc(OC(C)(C)C(=O)O)cc2)c2ccccc2N2CCCCC2)c1` (stereo not shown) [Compound 55, 2-[4-[1-(2-(3-methylphenyl)-1-(2-(1-piperidinyl)phenyl)ethyl)aminocarbonylmethyl]phenoxy]-2-methylpropanoic acid], the activation at 10 µM in test [1] was less than 10%; in test [2], less than 10%; in test [3] it was 33%. For the same compound, the inhibition at 0.3 µM in test [4] amounted to 27%.
Turning to `CC(C)CC(NC(=O)Cc1ccc(OCCCCC(C)(C)C(=O)O)cc1)c1ccccc1N1CCCCC1` (stereo not shown) [Compound 57, 6-[4-[1-(3-methyl-1-(2-(1-piperidinyl)phenyl)butyl)aminocarbonylmethyl]phenoxy]-2,2-dimethylhexanoic acid], the activation at 10 µM in test [1] was 29%; in test [2] it was less than 10%; in test [3], less than 10%. Also, the inhibition at 0.3 µM in test [4] is 18%.
As to `CC(C)CC(NC(=O)Cc1ccc(OC(C)(C)C(=O)NS(=O)(=O)C(F)(F)F)cc1)c1ccccc1N1CCCCC1` (stereo not shown) [Compound 59, N-[trifluoromethylsulfonyl]-2-[4-[1-(3-methyl-1-(2-(1-piperidinyl)phenyl)butyl)aminocarbonylmethyl]phenoxy]-2-methylpropanamide], the activation at 10 µM is 22% in test [1], less than 10% in test [2] and less than 10% in test [3]. The inhibition at 0.3 µM in test [4] stood at 73%.
